# “Also recorded” adds a separate entry of the source.
# Tests used:
# [1] = Long term stability: oxidation (6% H2O2) at ambient temperature; assay type: physicochemical; conditions: 6% H2O2, dark, ambient, up to 14 days
# Procedure: (§1) Osanetant p-toluenesulfonic acid Form 1 and osanetant benzenesulfonic acid Form 1 were tested for long-term stability across a number of different conditions, as detailed below.
# (§2) Oxidation at Ambient Temperature-Osanetant p-toluenesulfonic acid Form 1 and osanetant benzenesulfonic acid Form 1 were prepared at an osanetant content 10 times the normal working concentration then added to HPLC vials containing 6% H2O2 and stored in the dark at ambient laboratory conditions. Samples were diluted to 2 mg/mL for analysis and were taken after T=1, 2, 4, 7, and 14 days storage. […] The purity of the resulting material is described in Table 46: […]
# [2] = Comparative studies: 7-day stability; assay type: physicochemical
# [3] = Hygroscopicity / dynamic vapor sorption (DVS); assay type: physicochemical
# Procedure: The osanetant p-toluenesulfonic acid Form 1 solids consisted of aggregated crystals with an undefined morphology. Select peaks which can be used to characterize osanetant p-toluenesulfonic acid Form 1 include one or more of 11.4°2θ±0.2°2θ, 18.0°2θ±0.2°2θ, 19.0°2θ±0.2°2θ, 19.3°2θ±0.2°2θ, 19.8°2θ±0.2°2θ, or 21.1°2θ±0.2°2θ. In some embodiments, osanetant p-toluenesulfonic acid Form 1 is a monohydrate.
# [4] = Long term stability: base (2M NaOH) at ambient temperature; assay type: physicochemical; conditions: 2M NaOH, dark, ambient, up to 14 days
# Procedure: as §1
# as §2, with “Base” for “Oxidation”, “Temperature—Osanetant” for “Temperature-Osanetant”, “2M NaOH” for “6% H2O2”, “44:” for “46:”
# [5] = Long term stability: acid stability (2M HCl) at ambient temperature; assay type: physicochemical; conditions: 2M HCl, dark, ambient, up to 14 days
# Procedure: as §1
# as §2, with “Acid Stability” for “Oxidation”, “2M HCl” for “6% H2O2”, “42:” for “46:”
# [6] = Long term stability: oxidation (6% H2O2) at 60° C.; assay type: physicochemical; conditions: 6% H2O2, 60° C., up to 14 days
# Procedure: as §1
# as §2, with “60° C.—Osanetant” for “Ambient Temperature-Osanetant”, “a darkened oven” for “the dark”, “60° C.” for “ambient laboratory conditions.”, “47:” for “46:”
# [7] = Long term stability: base (2M NaOH) at 60° C.; assay type: physicochemical; conditions: 2M NaOH, 60° C., up to 14 days
# Procedure: as §1
# as §2, with “Base” for “Oxidation”, “60° C.—Osanetant” for “Ambient Temperature-Osanetant”, “2M NaOH” for “6% H2O2”, “a darkened oven” for “the dark”, “60° C.” for “ambient laboratory conditions.”, “45:” for “46:”
# [8] = Thermodynamic solubility in water and pH buffers
# [9] = Hydration study (stirring in ethanol: water mixtures, XRPD); assay type: physicochemical
# Procedure: (§3) 20 mg of osanetant p-toluenesulfonic acid Form 1 was stirred in the appropriate ethanol: water mixtures for 24 h at 25° C. Where clear solutions were observed after 1 h at 25° C., 0.5 mL of liquor was removed, and additional solid was added until a slurry was maintained. After 24 h total, the experiments were isolated by centrifugation, and the solids were analyzed by XRPD.
# as §3, with “Osanetant benzenesulfonic acid” for “20 mg of osanetant p-toluenesulfonic acid”, “Form 3 (20 mg)” for “Form 1”, “was removed from the Aw 0.257 sample,” for “was removed,”
# [10] = Solid form stability observations (scale up / polymorph work: drying, ambient conditions, aqueous media); assay type: physicochemical
# Procedure: Two anhydrous forms of the osanetant p-toluenesulfonic acid were synthesized. […] Form 6, described below, was a stable anhydrous form, but hydrated in water and aqueous solvent mixtures.
# Advantageously, Form 1 (hydrate) and Form 6 (anhydrous) were stable on drying. Form 1 re-hydrated at room temperature and pressure after KF analysis, when it was heated in an oven to remove the water.
# The experiment was cooled to 5° C. at a rate of 0.1° C./min and stirred at 5° C. for 18 h. The slurry was isolated be Buchner filtration: 42.5 mm Ø grade 1 Whatman filter paper; fast Filtration (<30 s); the cake was washed with 1 mL of ethyl acetate; the isolated solids were dried at 40° C. under vacuum for 72 h. […]
# [11] = Disproportionation study (stirring in water, XRPD, pH of liquor); assay type: physicochemical; conditions: 10 mg in 1 mL of water, 24 h at 25° C.
# Procedure: After 24 h total, a white slurry was observed and was isolated by centrifugation. The solids were analyzed by XRPD. The pH of the filtered liquor was measured at 5.63. […] After 24 h total, a white slurry was observed and was isolated by centrifugation. The solids were analyzed by XRPD. The pH of the filtered liquor was measured (pH=5.09).
smiles,measurement,setting,value
"CC(=O)N(C)C1(c2ccccc2)CCN(CCC[C@]2(c3ccc(Cl)c(Cl)c3)CCCN(C(=O)c3ccccc3)C2)CC1.Cc1ccc(S(=O)(=O)O)cc1 [osanetant p-toluenesulfonic acid Form 1, (R)-N-(1-(3-(1-benzoyl-3-(3,4-dichlorophenyl)piperidin-3-yl)propyl)-4-phenylpiperidin-4-yl)-N-methylacetamide p-toluenesulfonic acid]",degradation on storage (purity),[1],lack of degradation
same,impurities on 7-day stability,[2]; 80° C.,increase in impurities
same,solid form on 7-day stability,"[2]; 7 days, elevated temperature where stated",form was retained
same,physical stability,"[2]; in slurry at various water activity and pH, and at 40° C./75% RH and 80° C.",physically stable
same,hygroscopicity / water loss on DVS analysis,[3],did not lose the water
same,weight gain (hygroscopicity),[3]; at 80% RH,0.2 wt. %
same,degradation on storage (purity),[4],lack of degradation
same,degradation on storage (purity),[5],lack of degradation
same,degradation on storage (purity),[6],lack of degradation
same,degradation on storage (purity),[7],lack of degradation
same,Solubility in water and pH buffers,[8],low
same,XRPD form after stirring in ethanol: water mixtures,"[9]; 24 h at 25° C., all mixtures tested",no change in form
same,XRPD,"[9]; slurry in ethanol:water 63.6:36.4 % v/v, calc Aw 0.745, 24 h at 25° C.",Form 1
same,XRPD,"[9]; slurry in ethanol:water 92.9:7.1 % v/v, calc Aw 0.507, 24 h at 25° C.",Form 1
same,XRPD,"[9]; slurry in ethanol:water 98.4:1.6 % v/v, calc Aw 0.257, 24 h at 25° C.",Form 1
same,form stability / re-hydration under ambient conditions,[10]; ambient conditions / room temperature and pressure,re-hydrated
same,dehydration temperature,[10]; dehydrates to Form 5,above 85 °C
same,form on drying,[10]; drying (40° C. under vacuum where stated),stable; also recorded: no change
same,XRPD form / disproportionation after stirring in water,[11],no change in form; also recorded: did not disproportionate
same,pH of the filtered liquor,[11],5.63
